Results reported in patent publication US7709511B2, “Benzothiazolone derivatives” (AstraZeneca AB, priority 2005, dated 2010).
Counter-ions that a name gives are not always drawn.

Columns and labels:
[1] = target: T1, Adrenergic β2 (Homo sapiens, UniProt P07550); assay: Alternative adrenergic β2 mediated cAMP production in H292 cells (AlphaScreen cAMP detection); type: cell-based; conditions: for EC50: cAMP, test compounds incubated 60 minutes at room temperature, 300 μM rolipram, read-out: β2 pEC50 (converted); for β2 Int Act: fraction relative to the maximum activity determined for formoterol, 60 minutes incubation
T1 construct: endogenous in cells; host or cells: H292 cells
Experimental: Alternative Adrenergic β2 Mediated cAMP Production Cell Preparation
H292 cells were grown in 225 cm2 flasks incubator at 37° C., 5% CO2 in RPMI medium containing, 10% (v/v) FBS (foetal bovine serum) and 2 mM L-glutamine.
Adherent H292 cells were removed from tissue culture flasks by treatment with Accutase™ cell detachment solution for 15 minutes. Flasks were incubated for 15 minutes in a humidified incubator at 37° C., 5% CO2. Detached cells were re-suspended in RPMI media (containing 10% (v/v) FBS and 2 mM L-glutamine) at 0.05×10^6 cells per mL. 5000 cells in 100 μL were added to each well of a tissue-culture-treated 96-well plate and the cells incubated overnight in a humidified incubator at 37° C., 5% CO2. The culture media was removed and cells were washed twice with 100 μL assay buffer and replaced with 50 μL assay buffer (HBSS solution containing 10 mM HEPES pH7.4 and 5 mM glucose). Cells were rested at room temperature for 20 minutes after which time 25 μL of rolipram (1.2 mM made up in assay buffer containing 2.4% (v/v) dimethylsulphoxide) was added. Cells were incubated with rolipram for 10 minutes after which time test compounds were added and the cells were incubated for 60 minutes at room temperature. The final rolipram concentration in the assay was 300 μM and final vehicle concentration was 1.6% (v/v) dimethylsulphoxide. The reaction was stopped by removing supernatants, washing once with 100 μL assay buffer and replacing with 50 μL lysis buffer. The cell monolayer was frozen at −80° C. for 30 minutes (or overnight).
AlphaScreen™ cAMP Detection
The concentration of cAMP (cyclic adenosine monophosphate) in the cell lysate was determined using AlphaScreen™ methodology. The frozen cell plate was thawed for 20 minutes on a plate shaker then 10 μL of the cell lysate was transferred to a 96-well white plate. 40 μL of mixed AlphaScreen™ detection beads pre-incubated with biotinylated cAMP, was added to each well and the plate incubated at room temperature for 10 hours in the dark. The AlphaScreen™ signal was measured using an EnVision spectrophotometer (Perkin-Elmer Inc.) with the recommended manufacturer's settings. cAMP concentrations were determined by reference to a calibration curve determined in the same experiment using standard cAMP concentrations. Concentration response curves for agonists were constructed and data was fitted to a four parameter logistic equation to determine both the pEC50 and Intrinsic Activity. Intrinsic Activity was expressed as a fraction relative to the maximum activity determined for formoterol in each experiment.

[2] = target: T2, recombinant human α1D receptor (Homo sapiens, UniProt P25100); assay: Adrenergic α1D selectivity assay, inhibition of [3H]-prazosin binding to membranes; conditions: HEK293 membranes, [3H]-prazosin 0.3 nM; read-out: α1 bind pIC50 (converted)
T2 construct: made in house; host or cells: HEK293 cells (membranes)
T2 sequence (P25100 1-572): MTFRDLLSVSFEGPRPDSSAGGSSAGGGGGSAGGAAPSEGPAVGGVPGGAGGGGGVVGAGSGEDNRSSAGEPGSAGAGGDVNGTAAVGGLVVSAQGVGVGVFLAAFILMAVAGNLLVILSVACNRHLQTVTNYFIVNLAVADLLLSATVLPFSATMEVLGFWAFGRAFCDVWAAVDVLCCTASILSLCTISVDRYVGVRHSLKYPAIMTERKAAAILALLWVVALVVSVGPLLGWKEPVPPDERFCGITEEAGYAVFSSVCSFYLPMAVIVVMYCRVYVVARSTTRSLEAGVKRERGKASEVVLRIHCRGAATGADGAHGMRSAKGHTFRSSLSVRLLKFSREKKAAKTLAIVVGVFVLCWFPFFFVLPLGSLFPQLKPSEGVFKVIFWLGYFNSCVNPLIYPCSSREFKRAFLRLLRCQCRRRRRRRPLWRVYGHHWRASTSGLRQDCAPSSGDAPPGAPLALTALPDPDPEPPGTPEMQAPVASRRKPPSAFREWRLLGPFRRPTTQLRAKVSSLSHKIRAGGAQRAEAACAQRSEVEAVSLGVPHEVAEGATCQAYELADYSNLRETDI
Experimental: Membranes were prepared from human embryonic kidney 293 (HEK293) cells expressing recombinant human α1D receptor. These were diluted in Assay Buffer (50 mM HEPES, 1 mM EDTA, 0.1% gelatin, pH 7.4) to provide a final concentration of membranes that gave a clear window between maximum and minimum specific binding.
Assays were performed in U-bottomed 96-well polypropylene plates. 10 μL [^3H]-prazosin (0.3 nM final concentration) and 10 μL of test compound (10× final concentration) were added to each test well. For each assay plate 8 replicates were obtained for [^3H]-prazosin binding in the presence of 10 μL vehicle (10% (v/v) DMSO in Assay Buffer; defining maximum binding) or 10 μL BMY7378 (10 μM final concentration; defining non-specific binding (NSB)). Membranes were then added to achieve a final volume of 100 μL. The plates were incubated for 2 hours at room temperature and then filtered onto PEI coated GF/B filter plates, pre-soaked for 1 hour in Assay Buffer, using a 96-well plate Tomtec cell harvester. Five washes with 250 μL wash buffer (50 mM HEPES, 1 mM EDTA, pH 7.4) were performed at 4° C. to remove unbound radioactivity. The plates were dried then sealed from underneath using Packard plate sealers and MicroScint-O (50 μL) was added to each well. The plates were sealed (TopSeal A) and filter-bound radioactivity was measured with a scintillation counter (TopCount, Packard BioScience) using a 3-minute counting protocol.
(§1) Total specific binding (B0) was determined by subtracting the mean NSB from the mean maximum binding. NSB values were also subtracted from values from all other wells. […] Data was fitted to a four parameter logistic equation to determine the compound potency, which was expressed as pIC50 (negative log molar concentration inducing 50% inhibition of [^3H]-prazosin binding).

[3] = target: T3, recombinant human Dopamine Subtype D2s receptors (Homo sapiens, UniProt P14416); assay: Dopamine D2 selectivity assay, inhibition of [3H]-spiperone binding to membranes; conditions: [3H]-spiperone 0.16 nM; read-out: D2 bind pIC50 (converted)
T3 construct: purchased Perkin Elmer
Experimental: Membranes containing recombinant human Dopamine Subtype D2s receptors were obtained from Perkin Elmer. These were diluted in Assay Buffer (50 mM HEPES, 1 mM EDTA, 120 mM NaCl, 0.1% gelatin, pH 7.4) to provide a final concentration of membranes that gave a clear window between maximum and minimum specific binding.
Assays were performed in U-bottomed 96-well polypropylene plates. 30 μL [^3H]-spiperone (0.16 nM final concentration) and 30 μL of test compound (10× final concentration) were added to each test well. For each assay plate 8 replicates were obtained for [^3H]-spiperone binding in the presence of 30 μL vehicle (10% (v/v) DMSO in Assay Buffer; defining maximum binding) or 30 μL Haloperidol (10 μM final concentration; defining non-specific binding (NSB)). Membranes were then added to achieve a final volume of 300 μL. The plates were incubated for 2 hours at room temperature and then filtered onto PEI coated GF/B filter plates, pre-soaked for 1 hour in Assay Buffer, using a 96-well plate Tomtec cell harvester. Five washes with 250 μL wash buffer (50 mM HEPES, 1 mM EDTA, 120 mM NaCl, pH 7.4) were performed at 4° C. to remove unbound radioactivity. The plates were dried then sealed from underneath using Packard plate sealers and MicroScint-O (50 μL) was added to each well. The plates were sealed (TopSeal A) and filter-bound radioactivity was measured with a scintillation counter (TopCount, Packard BioScience) using a 3-minute counting protocol.
as §1, with “[^3H]-spiperone” for “[^3H]-prazosin”

T3 sequence (P14416 1-414 isoform P14416-2): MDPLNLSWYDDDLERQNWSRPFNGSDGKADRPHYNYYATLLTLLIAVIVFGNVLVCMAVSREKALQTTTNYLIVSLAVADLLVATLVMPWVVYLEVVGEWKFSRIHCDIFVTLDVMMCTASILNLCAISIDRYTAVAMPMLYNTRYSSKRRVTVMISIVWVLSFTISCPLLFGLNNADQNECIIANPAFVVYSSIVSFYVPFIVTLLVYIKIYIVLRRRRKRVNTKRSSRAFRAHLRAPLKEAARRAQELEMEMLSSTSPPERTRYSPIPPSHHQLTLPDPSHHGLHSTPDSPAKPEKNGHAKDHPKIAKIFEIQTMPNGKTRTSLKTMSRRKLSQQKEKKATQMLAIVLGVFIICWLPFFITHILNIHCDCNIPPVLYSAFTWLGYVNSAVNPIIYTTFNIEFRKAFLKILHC
T1 sequence (P07550 whole entry): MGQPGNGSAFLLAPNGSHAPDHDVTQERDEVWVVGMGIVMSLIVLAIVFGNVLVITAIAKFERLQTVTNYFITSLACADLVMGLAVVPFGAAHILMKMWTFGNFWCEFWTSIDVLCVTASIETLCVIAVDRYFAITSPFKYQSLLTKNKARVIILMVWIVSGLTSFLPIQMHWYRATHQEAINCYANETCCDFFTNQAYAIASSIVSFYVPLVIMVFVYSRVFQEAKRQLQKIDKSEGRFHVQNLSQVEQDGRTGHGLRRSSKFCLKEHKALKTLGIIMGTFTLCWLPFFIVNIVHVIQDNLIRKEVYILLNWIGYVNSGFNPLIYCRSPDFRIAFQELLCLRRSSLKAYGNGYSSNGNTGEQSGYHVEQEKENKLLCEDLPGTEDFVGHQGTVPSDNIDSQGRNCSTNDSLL

SMILES | EC50 [1] | β2 Int Act [1] | IC50 [2] | IC50 [3]
CCN(CC)CCN(CCNCCc1ccc(O)c2[nH]c(=O)sc12)C(=O)CCOCCc1ccc(Cl)c(Cl)c1 [Example 27, 3-[2-(3,4-Dichlorophenyl)ethoxy]-N-(2-diethylaminoethyl)-N-{2-[2-(4-hydroxy-2-oxo-2,3-dihydro-1,3-benzothiazol-7-yl)ethylamino]ethyl}propanamide dihydrobromide] | 31.6 nM | 0.6 | 1000 nM | 3160 nM
CCN(CC)CCN(CCNCCc1ccc(O)c2[nH]c(=O)sc12)C(=O)CCOCCc1ccccc1C(F)(F)F [Example 17, N-[2-(Diethylamino)ethyl]-N-(2-{[2-(4-hydroxy-2-oxo-2,3-dihydro-1,3-benzothiazol-7-yl)ethyl]amino}ethyl)-3-{2-[2-(trifluoromethyl)phenyl]ethoxy}propanamide ditrifluoroacetate] | 25.1 nM | 0.9 | 794 nM | 
CCN(CC)CCN(CCNCCc1ccc(O)c2[nH]c(=O)sc12)C(=O)CCOCCc1ccc2ccccc2c1 [Example 32, N-[2-(Diethylamino)ethyl]-N-(2-{[2-(4-hydroxy-2-oxo-2,3-dihydro-1,3-benzothiazol-7-yl)ethyl]amino}ethyl)-3-[2-(2-naphthyl)ethoxy]propanamide] | 10 nM | 0.5 | 631 nM | 794 nM
CCN(CC)CCN(CCNCCc1ccc(O)c2[nH]c(=O)sc12)C(=O)CCOCCc1cccc(Cl)c1Cl [Example 20, 3-[2-(2,3-Dichlorophenyl)ethoxy]-N-(2-diethylaminoethyl)-N-(2-{[2-(4-hydroxy-2-oxo-2,3-dihydro-1,3-benzothiazol-7-yl)ethyl]amino}ethyl)propanamide ditrifluoroacetate] | 10 nM | 0.6 | 398 nM | 1580 nM
CCN(CC)CCN(CCNCCc1ccc(O)c2[nH]c(=O)sc12)C(=O)CCOCCc1cccc(Cl)c1 [Example 18, 3-[2-(3-Chlorophenyl)ethoxy]-N-[2-(diethylamino)ethyl]-N-(2-{[2-(4-hydroxy-2-oxo-2,3-dihydro-1,3-benzothiazol-7-yl)ethyl]amino}ethyl)propanamide ditrifluoroacetate] | 5.01 nM | 0.7 | 794 nM | 2510 nM
CCN(CC)CCN(CCNCCc1ccc(O)c2[nH]c(=O)sc12)C(=O)CCOCCc1cccc(O)c1 [Example 29, N-(2-Diethylaminoethyl)-N-{2-[2-(4-hydroxy-2-oxo-2,3-dihydro-1,3-benzothiazol-7-yl)ethylamino]ethyl}-3-[2-(3-hydroxyphenyl)ethoxy]propanamide dihydrobromide] | 6.31 nM | 0.8 | 1260 nM | 251 nM
CCN(CC)CCN(CCNCCc1ccc(O)c2[nH]c(=O)sc12)C(=O)CCOCCc1cccc(F)c1 [Example 22, N-(2-Diethylaminoethyl)-3-[2-(3-fluorophenyl)ethoxy]-N-{2-[2-(4-hydroxy-2-oxo-2,3-dihydro-1,3-benzothiazol-7-yl)ethylamino]ethyl}propanamide dihydrobromide] | 7.94 nM | 0.8 | 1260 nM | 5010 nM
CCN(CC)CCN(CCNCCc1ccc(O)c2[nH]c(=O)sc12)C(=O)CCOCCc1ccccc1Cl [Example 31, 3-[2-(2-Chlorophenyl)ethoxy]-N-(2-diethylaminoethyl)-N-{2-[2-(4-hydroxy-2-oxo-2,3-dihydro-1,3-benzothiazol-7-yl)ethylamino]ethyl}propanamide ditrifluoroacetate] | 20 nM | 0.9 | 251 nM | 5010 nM
